Data: ChEMBL document CHEMBL1151048, “Synthesis and antimicrobial activity of 5-thioabbeymycin: limitations of the iminothioether approach to carbinolamine-containing pyrrolobenzodiazepines” (1993)

Tests used:
Format in all cases: functional
[1] = tested on: Pseudomonas aeruginosa; experiment: Minimum inhibitory concentration against Pseudomonas aeruginosa; value ranges from 2-4 ug cm-3
[2] = tested on: Pseudomonas aeruginosa; experiment: Minimum bactericidal concentration against Pseudomonas aeruginosa; value ranges from 2-4 ug cm-3
[3] = tested on: Staphylococcus aureus; experiment: Minimum bactericidal concentration against Staphylococcus aureus; value ranges from 2-8 ug cm-3
[4] = tested on: Staphylococcus aureus; experiment: Minimum inhibitory concentration against Staphylococcus aureus; value ranges from 2-4 ug cm-3

MIC [1]: 2 ug cm**-3
MIC [4]: 2 ug cm**-3
SMILES: O[C@H]1C[C@H]2C=Nc3ccccc3C(=S)N2C1
MBC [2]: 2 ug cm**-3
MBC [3]: 2 ug cm**-3
